Target: human full-length MKNK1 (Homo sapiens (Human), UniProt Q9BUB5, T344D)
Experiment: MKNK1 kinase high ATP assay (TR-FRET)
Format: biochemical
Conditions: 2 mM ATP, 15 min preincubation with enzyme, GST-MKNK1 (T344D)
Method in brief: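 GST-tagged full-length human MKNK1 (1-424, T344D, baculovirus-expressed) preincubated 15 min at 22 °C with compound, then reacted 30 min at 22 °C with 2 mM ATP and 0.06 μM biotinylated peptide (final) in HEPES pH 7.5. Phospho-substrate by TR-FRET (665/622 nm ratio), normalised to no-inhibitor and no-enzyme controls.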

Sequence of human full-length MKNK1 (Q9BUB5 other isoform, or with tags, fused parts or gaps T344D): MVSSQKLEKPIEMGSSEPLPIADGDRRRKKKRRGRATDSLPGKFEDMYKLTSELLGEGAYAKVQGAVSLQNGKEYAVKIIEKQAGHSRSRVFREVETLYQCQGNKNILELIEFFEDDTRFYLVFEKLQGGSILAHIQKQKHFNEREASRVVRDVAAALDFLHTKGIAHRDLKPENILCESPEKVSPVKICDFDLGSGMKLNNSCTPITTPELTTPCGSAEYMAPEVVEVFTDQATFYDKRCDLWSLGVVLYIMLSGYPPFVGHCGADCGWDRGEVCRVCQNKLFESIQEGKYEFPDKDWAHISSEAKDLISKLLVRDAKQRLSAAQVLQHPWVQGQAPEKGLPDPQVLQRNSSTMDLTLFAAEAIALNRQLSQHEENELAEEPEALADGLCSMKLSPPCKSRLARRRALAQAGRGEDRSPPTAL

SMILES	IC50
Cc1ccc2c(Nc3cc(C)c4n(c3=O)C3(CCCCC3)NC4=O)ncnc2c1 [Example 121, 8′-Methyl-6′-[(7-methylquinazolin-4-yl)amino]-2′H-spiro[cyclohexane-1,3′-imidazo[1,5-a]pyridine]-1′,5′-dione]	7.1 nM
Cc1ccc2ncnc(Nc3cc(C)c4n(c3=O)C3(CCCCC3)NC4=O)c2c1 [Example 122, 8′-Methyl-6′-[(6-methylquinazolin-4-yl)amino]-2′H-spiro[cyclohexane-1,3′-imidazo[1,5-a]pyridine]-1′,5′-dione]	13.2 nM
Cc1cc(Nc2ncnc3cccc(C)c23)c(=O)n2c1C(=O)NC21CCCCC1 [Example 123, 8′-Methyl-6′-[(5-methylquinazolin-4-yl)amino]-2′H-spiro[cyclohexane-1,3′-imidazo[1,5-a]pyridine]-1′,5′-dione]	9.7 nM
Cc1cc(Nc2ncnc3ccc(C(F)(F)F)cc23)c(=O)n2c1C(=O)NC21CCCCC1 [Example 124, 8′-Methyl-6′-{[6-(trifluoromethyl)quinazolin-4-yl]amino}-2′H-spiro[cyclohexane-1,3′-imidazo[1,5-a]pyridine]-1′,5′-dione]	49.9 nM
Cc1cc(Nc2ncnc3c2CNC3)c(=O)n2c1C(=O)NC21CCC(F)(F)CC1 [Example 125, 6′-(6,7-Dihydro-5H-pyrrolo[3,4-d]pyrimidin-4-ylamino)-4,4-difluoro-8′-methyl-2′H-spiro[cyclohexane-1,3′-imidazo[1,5-a]pyridine]-1′,5′-dione]	46.5 nM
Cc1cc(Nc2ncnc3c2CNC3)c(=O)n2c1C(=O)NC21CCCC1 [Example 126, 6′-(6,7-Dihydro-5H-pyrrolo[3,4-d]pyrimidin-4-ylamino)-8′-methyl-2′H-spiro[cyclopentane-1,3′-imidazo[1,5-a]pyridine]-1′,5′-dione]	20.3 nM
Cc1cc(Nc2ncnc(N)n2)c(=O)n2c1C(=O)NC21CCC(O)(C(F)(F)F)CC1 (stereo not shown) [Example 127, 6′-[(4-Amino-1,3,5-triazin-2-yl)amino]-4-hydroxy-8′-methyl-4-(trifluoromethyl)-2′H-spiro[cyclohexane-1,3′-imidazo[1,5-a]pyridine]-1′,5′-dione]	71.2 nM
Cc1cc(Nc2ncnc3[nH]ccc23)c(=O)n2c1C(=O)NC21CCC(O)(C(F)(F)F)CC1 (stereo not shown) [Example 128, 4-Hydroxy-8′-methyl-6′-(7H-pyrrolo[2,3-d]pyrimidin-4-ylamino)-4-(trifluoromethyl)-2′H-spiro[cyclohexane-1,3′-imidazo[1,5-a]pyridine]-1′,5′-dione]	1 nM
Cc1cc(Nc2ncnc3sc(C(=O)NCCN(C)C)cc23)c(=O)n2c1C(=O)NC21CCC(O)(C(F)(F)F)CC1 (stereo not shown) [Example 129, N-[2-(Dimethylamino)ethyl]-4-{[4-hydroxy-8′-methyl-1′,5′-dioxo-4-(trifluoromethyl)-1′,5′-dihydro-2′H-spiro[cyclohexane-1,3′-imidazo[1,5-a]pyridin]-6′-yl]amino}thieno[2,3-d]pyrimidine-6-carboxamide]	21 nM
Cc1cc(Nc2ncnc3sccc23)c(=O)n2c1C(=O)NC21CCC(O)(C(F)(F)F)CC1 (stereo not shown) [Example 130, 4-Hydroxy-8′-methyl-6′-(thieno[2,3-d]pyrimidin-4-ylamino)-4-(trifluoromethyl)-2′H-spiro[cyclohexane-1,3′-imidazo[1,5-a]pyridine]-1′,5′-dione]	7.9 nM
Cc1cc(Nc2ncnc(N)n2)c(=O)n2c1C(=O)NC2(C)C [Example 131, 6-[(4-Amino-1,3,5-triazin-2-yl)amino]-3,3,8-trimethyl-2,3-dihydroimidazo[1,5-a]pyridine-1,5-dione]	32.2 nM
Cc1cc(Nc2ncnc3[nH]ccc23)c(=O)n2c1C(=O)NC2(C)C [Example 132, 3,3,8-Trimethyl-6-(7H-pyrrolo[2,3-d]pyrimidin-4-ylamino)-2,3-dihydroimidazo[1,5-a]pyridine-1,5-dione]	0.7 nM
Cc1cc(Nc2ncnc3[nH]ncc23)c(=O)n2c1C(=O)NC2(C)C [Example 133, 3,3,8-Trimethyl-6-(1H-pyrazolo[3,4-d]pyrimidin-4-ylamino)-2,3-dihydroimidazo[1,5-a]pyridine-1,5-dione]	10.1 nM
Cc1cc(Nc2ncnc3[nH]cnc23)c(=O)n2c1C(=O)NC2(C)C [Example 134, 3,3,8-Trimethyl-6-(9H-purin-6-ylamino)-2,3-dihydroimidazo[1,5-a]pyridine-1,5-dione]	5.8 nM
Cc1cc(Nc2ncnc3sccc23)c(=O)n2c1C(=O)NC2(C)C [Example 135, 3,3,8-Trimethyl-6-(thieno[2,3-d]pyrimidin-4-ylamino)-2,3-dihydroimidazo[1,5-a]pyridine-1,5-dione]	19.8 nM
Cc1cc(Nc2ncnc3sc(C(=O)O)cc23)c(=O)n2c1C(=O)NC2(C)C [Example 136, 4-[(3,3,8-Trimethyl-1,5-dioxo-1,2,3,5-tetrahydroimidazo[1,5-a]pyridin-6-yl)amino]thieno[2,3-d]pyrimidine-6-carboxylic acid]	122 nM
Cc1cc(Nc2ncnc3sc(C(=O)NCCN(C)C)cc23)c(=O)n2c1C(=O)NC2(C)C [Example 137, N-[2-(Dimethylamino)ethyl]-4-[(3,3,8-trimethyl-1,5-dioxo-1,2,3,5-tetrahydroimidazo[1,5-a]pyridin-6-yl)amino]thieno[2,3-d]pyrimidine-6-carboxamide]	21.1 nM
Cc1cc(Nc2ncnc3sc(C(=O)N(C)CCN(C)C)cc23)c(=O)n2c1C(=O)NC2(C)C [Example 138, N-[2-(Dimethylamino)ethyl]-N-methyl-4-[(3,3,8-trimethyl-1,5-dioxo-1,2,3,5-tetrahydroimidazo[1,5-a]pyridin-6-yl)amino]thieno[2,3-d]pyrimidine-6-carboxamide]	33.6 nM
Cc1cc(Nc2ncnc3sc(C(=O)N4CC(NC(=O)OC(C)(C)C)C4)cc23)c(=O)n2c1C(=O)NC2(C)C [Example 139, tert-Butyl [1-({4-[(3,3,8-trimethyl-1,5-dioxo-1,2,3,5-tetrahydroimidazo[1,5-a]pyridin-6-yl)amino]thieno[2,3-d]pyrimidin-6-yl}carbonyl)azetidin-3-yl]carbamate]	24.1 nM
Cc1cc(Nc2ncnc3sc(C(=O)N4CC(N)C4)cc23)c(=O)n2c1C(=O)NC2(C)C [Example 140, 6-({6-[(3-Aminoazetidin-1-yl)carbonyl]thieno[2,3-d]pyrimidin-4-yl}amino)-3,3,8-trimethyl-2,3-dihydroimidazo[1,5-a]pyridine-1,5-dione]	22.3 nM
Cc1cc(Nc2ncnc3sc(C(=O)N4CC(C#N)C4)cc23)c(=O)n2c1C(=O)NC2(C)C [Example 141, 1-({4-[(3,3,8-Trimethyl-1,5-dioxo-1,2,3,5-tetrahydroimidazo[1,5-a]pyridin-6-yl)amino]thieno[2,3-d]pyrimidin-6-yl}carbonyl)azetidine-3-carbonitrile]	24.2 nM
Cc1cc(Nc2ncnc3sc(C(=O)N4CC[C@@H](N(C)C)C4)cc23)c(=O)n2c1C(=O)NC2(C)C [Example 142, 6-[(6-{[(3R)-3-(Dimethylamino)pyrrolidin-1-yl]carbonyl}thieno[2,3-d]pyrimidin-4-yl)amino]-3,3,8-trimethyl-2,3-dihydroimidazo[1,5-a]pyridine-1,5-dione]	20 nM

Source: US11311520B2, “Substituted dihydroimidazopyridinediones as MKNK1 and MKNK2 inhibitors” (Bayer Pharma Aktiengesellschaft, priority 2017, dated 2022)
